Results as given in patent US20200331855A1, “CO-CRYSTAL OF TOCOPHEROL AND PROLINE AND PREPARATION METHOD THEREOF” (priority 2017, published 2020).
Values belong to the compound of their own block, whether it stands above or below them.

Legend:
[1] = High temperature test (60° C.), content by HPLC and appearance; assay type: physicochemical
Protocol: (§1) The content was determined by HPLC, and the content was calculated by the external standard method.

[2] = Strong light irradiation test (5500 Lux), content by HPLC and appearance; assay type: physicochemical; settings: 25° C.
Protocol: as §1

[3] = Long-term test stability (25° C./60% relative humidity); assay type: physicochemical; settings: Month 0, initial content set at 100%
Protocol: as §1

[4] = Accelerated test stability (40° C./75% relative humidity), D-α-tocopherol vs co-crystal; assay type: physicochemical
Protocol: as §1

[5] = 200 g lean beef, 69 mg co-crystal or same equivalent, stored at 2-4° C. for 8 days
Protocol: A. the lean beef was cut into pieces with a size of about 2×2 cm, 200 grams for each.
All samples were placed in a metal dish, numbered and stored at 2-4° C. for 8 days.

[6] = Acceleration test (40° C./75% relative humidity), synthetic tocopherol vs co-crystal, total tocopherol content; assay type: physicochemical
Protocol: The content was determined by HPLC, the content was calculated by the external standard method, and the content is calculated based on the total tocopherol content. Both the initial tocopherol contents in the synthetic tocopherol itself and in the co-crystals were set at 100%.

content ([1]; Day 0, HPLC, initial content set at 100%): 100%
content ([1]; Day 5, % of initial content): 96.7%
content ([1]; Day 10, % of initial content): 89.4%
content ([1]; Day 20, % of initial content): 78.7%
content ([1]; Day 30, % of initial content): 77.3%
content ([2]; near UV 90 μW/cm^2, Day 0, initial content set at 100%): 100%
content ([2]; near UV 90 μW/cm^2, Day 5): 97.8%
content ([2]; near UV 90 μW/cm^2, Day 10): 91.8%
content ([2]; near UV 90 μW/cm^2, Day 20): 88.5%
content [3]: 100.0%
content ([4]; Month 0, initial content set at 100%): 100%
content ([4]; Month 1): 98.0%
content ([4]; Month 2): 99.1%
Compound: Cc1c(C)c2c(c(C)c1O)CC[C@@](C)(CCC[C@H](C)CCC[C@H](C)CCCC(C)C)O2 [D-α-tocopherol]

Compound: co-crystal of D-α-tocopherol and L-proline
flavor (rancidity) of beef [5]: except for the sample added with the co-crystal of D-α-tocopherol and L-proline, both of the other two samples have rancidity
meat color of beef [5]: can delay the darkening and greening of beef

content ([6]; Month 0, initial set at 100%): 100.0%
content ([6]; Month 1): 94.1%
Compound: Cc1c(C)c2c(c(C)c1O)CCC(C)(CCCC(C)CCCC(C)CCCC(C)C)O2 (racemic) [synthetic tocopherol, DL-α-tocopherol]
